{"source": "ChEMBL document CHEMBL5321216", "about": "“Discovery of bipyridine amide derivatives targeting pRXRα-PLK1 interaction for anticancer therapy” (Eur J Med Chem, 2023)", "key": {"A549 [1]": {"tested_on": "A549", "assay": "Induction of apoptosis in human A549 cells assessed as live cells at 62.5 nM incubated for 24 hrs by annexin V-FITC/PI staining based flow cytometry analysis (reference value: 93.2%)", "format": "functional"}, "MDA-MB-231 [2]": {"tested_on": "MDA-MB-231", "assay": "Induction of cell cycle arrest in human MDA-MB-231 cells assessed as accumulation of cells at G1 phase at 31.25 nM incubated for 12 hrs by flow cytometry analysis (reference value: 43.2%)", "format": "functional"}, "[3]": {"assay": "Selectivity index, ratio of IC50 for human MCF7 cells to IC50 for human MDA-MB-231 cells", "format": "toxicity"}, "A549 [4]": {"tested_on": "A549", "assay": "Induction of cell cycle arrest in wild type human A549 cells assessed as accumulation of cells at S phase at 125 nM incubated for 12 hrs by DAPI staining based flow cytometry analysis (reference value: 41.12 %)", "format": "functional"}, "MDA-MB-231 [5]": {"tested_on": "MDA-MB-231", "assay": "Induction of apoptosis in human MDA-MB-231 cells assessed as live cells at 62.5 nM incubated for 24 hrs by annexin V-FITC/PI staining based flow cytometry analysis (reference value: 91.3%)", "format": "functional"}, "A549 [6]": {"tested_on": "A549", "assay": "Induction of apoptosis in human A549 cells assessed as live cells at 31.25 nM incubated for 24 hrs by annexin V-FITC/PI staining based flow cytometry analysis (reference value: 93.2%)", "format": "functional"}, "MDA-MB-231 [7]": {"tested_on": "MDA-MB-231", "assay": "Antiproliferative activity against human MDA-MB-231 cells assessed as inhibition of cell proliferation incubated for 72 hrs by MTT assay", "format": "functional, cell-based", "settings": "MDA-MB-231, 72 h"}, "[8]": {"assay": "Cmax in Sprague-Dawley rat at 25 mg/kg, ip measured for 48 hrs by LC-MS/MS analysis", "format": "ADME, organism-based", "set-up": "time 48 hrs, dose 25 mg/kg, route ip", "settings": "in vivo"}, "MDA-MB-231 [9]": {"tested_on": "MDA-MB-231", "assay": "Induction of apoptosis in human MDA-MB-231 cells assessed as dead cells at 250 nM incubated for 24 hrs by annexin V-FITC/PI staining based flow cytometry analysis (reference value: 0.69%)", "format": "functional"}, "[10]": {"assay": "Cytotoxicity against human HaCaT cells assessed as inhibition of cell proliferation incubated for 72 hrs by MTT assay", "format": "toxicity, cell-based"}, "[11]": {"assay": "AUC (0 to infinity) in Sprague-Dawley rat at 25 mg/kg, ip measured for 48 hrs by LC-MS/MS analysis", "format": "ADME, organism-based", "set-up": "time 48 hrs, dose 25 mg/kg, route ip", "settings": "in vivo"}, "MDA-MB-231 [12]": {"tested_on": "MDA-MB-231", "assay": "Induction of cell cycle arrest in human MDA-MB-231 cells assessed as accumulation of cells at G1 phase at 125 nM incubated for 12 hrs by flow cytometry analysis (reference value: 43.2%)", "format": "functional"}}, "data": [{"molecule": "O=C(/C=C/c1ccccc1)Nc1cc(-c2ccnc(N3CCC(CO)CC3)c2)ccn1", "values": [{"measurement": "Activity", "setting": "A549 [1]", "result": 67.7, "unit": "%"}, {"measurement": "Activity", "setting": "MDA-MB-231 [2]", "result": 42.63, "unit": "%"}, {"measurement": "Ratio IC50", "setting": "[3]", "result": 146.5}, {"measurement": "Activity", "setting": "A549 [4]", "result": 18.11, "unit": "%"}, {"measurement": "Activity", "setting": "MDA-MB-231 [5]", "result": 69.2, "unit": "%"}, {"measurement": "Activity", "setting": "A549 [6]", "result": 70.9, "unit": "%"}, {"measurement": "IC50", "setting": "MDA-MB-231 [7]", "result": 16, "unit": "nM"}, {"measurement": "Cmax", "setting": "[8]", "result": 8080, "unit": "ng/mL"}, {"measurement": "Activity", "setting": "MDA-MB-231 [9]", "result": 1.67, "unit": "%"}, {"measurement": "IC50 at 72 h", "setting": "[10]", "result": 51, "unit": "nM"}, {"measurement": "AUC(0-inf)", "setting": "[11]", "result": 14600, "unit": "ng·h/mL"}, {"measurement": "Activity", "setting": "MDA-MB-231 [12]", "result": 0.07, "unit": "%"}]}]}
